Test results taken from patent US20150119398A1, “FORM 2 POLYMORPH OF 7-(TERT-BUTYL-D9)-3-(2,5-DIFLUOROPHENYL)-6-((1-METHYL-1H-1,2,4-TRIAZOL-5-YL)METHOXY)-[1,2,4]TRIAZOLO[4,3-B]PYRIDAZINE” (Concert Pharmaceuticals Inc., priority 2012, published 2015).

Key:
[1] = Dynamic Vapor Sorption (DVS) analysis; format: physicochemical; conditions: between 0-90% relative humidity, 25° C.
Description: Dynamic Vapor Sorption (DVS). DVS experiments were conducted on a Surface Measurement Systems DVS-HT at 25° C. The instrument was operated in step mode and the relative humidity was increased in 10% RH increments from 40% RH to 90% RH, then decreased from 90% RH to 0% RH, then increased from 0% RH to 90% RH, then decreased from 90% RH to 0% RH. An extra step at 75% RH was included in each cycle. The mass equilibrium criterion was set at 0.005% change in mass over time (dm/dt) prior to each humidity level. A minimum step time of 10 minutes and a maximum step time of 240 minutes were specified.

[2] = Physical stability of the crystal form on exposure to ambient conditions or elevated humidity; format: physicochemical

weight gain by DVS [1]: up to 2.5 % wt | physical stability at elevated humidity (75% or 95% RH) ([2]; 75% or 95% RH, 5 days): physically stable | physical stability at 75-97% relative humidity ([2]; 75-97% relative humidity, five days): physically stable | physical stability at ambient conditions ([2]; ambient conditions, at least two weeks): physically stable
Structure (SMILES): [2H]C([2H])([2H])C(c1cc2nnc(-c3cc(F)ccc3F)n2nc1OCc1ncnn1C)(C([2H])([2H])[2H])C([2H])([2H])[2H] [Form 2, 7-(tert-Butyl-d9)-3-(2,5-difluorophenyl)-6-((1-methyl-1H-1,2,4-triazol-5-yl)methoxy)-[1,2,4]triazolo[4,3-b]pyridazine]
